Assay results reported in ChEMBL document CHEMBL5500376, “Novel pyxinol amide derivatives bearing an aliphatic heterocycle as P-glycoprotein modulators for overcoming multidrug resistance” (Eur J Med Chem, 2024).
Where a name gives a salt, the structure may show the parent alone. Calls of active or inactive are those of the source. The rule behind the calls is not given here.

Assays:
[1] = Reversal fold, ratio of 5-fluorouracil IC50 to 5-fluorouracil IC50 in presence of test compound for reversal of multi-drug resistance in human KVB cells at 10 uM measured after 72 hrs by MTT assay; type: functional, KBV
KBV [2] = assay: Antimigratory activity against human KVB cells assessed as inhibition of cell migration at 50 nM and incubated for 24 hrs by scratch wound healing assay; type: functional, cell-based
KBV [3] = assay: Inhibition of colony formation of human KVB cells assessed as reduction in colonies at 2.5 uM measured after 48 hrs by crystal violet staining based analysis; type: functional, cell-based
[4] = Cytotoxicity against HUVEC cells assessed as cell survival measured after 72 hrs incubation by MTT assay; type: toxicity, cell-based; conditions: human
[5] = target: T1, ATP-dependent translocase ABCB1 (Homo sapiens, UniProt P08183); assay: Substrate activity at Pgp in human KVB cells assessed as intracellular accumulation measured after 4 hrs by LC-MS/MS analysis; type: cell-based; conditions: kbv
[6] = Cytotoxicity against human HK-2 cells assessed as cell survival measured after 72 hrs incubation by MTT assay; type: toxicity, cell-based
[7] = Reversal fold, ratio of cisplatin IC50 to cisplatin IC50 in presence of test compound for reversal of multi-drug resistance in human KVB cells at 25 uM measured after 72 hrs by MTT assay; type: functional, KBV
[8] = Cytotoxicity against human KBV cells assessed as cell survival measured after 72 hrs incubation by MTT assay; type: functional, cell-based
KBV [9] = assay: Potentiation of PTX-mediated inhibition of colony formation of human KVB cells assessed as reduction in colonies measured after 48 hrs by crystal violet staining based analysis; type: functional, cell-based; conditions: dose […] µM
[10] = target: T2, Broad substrate specificity ATP-binding cassette transporter ABCG2 (Homo sapiens, UniProt Q9UNQ0); assay: Thermal stabilization of ABCG2 in human KVB cells by CETSA assay; type: cell-based; conditions: kbv
T2 sequence (Q9UNQ0 whole entry): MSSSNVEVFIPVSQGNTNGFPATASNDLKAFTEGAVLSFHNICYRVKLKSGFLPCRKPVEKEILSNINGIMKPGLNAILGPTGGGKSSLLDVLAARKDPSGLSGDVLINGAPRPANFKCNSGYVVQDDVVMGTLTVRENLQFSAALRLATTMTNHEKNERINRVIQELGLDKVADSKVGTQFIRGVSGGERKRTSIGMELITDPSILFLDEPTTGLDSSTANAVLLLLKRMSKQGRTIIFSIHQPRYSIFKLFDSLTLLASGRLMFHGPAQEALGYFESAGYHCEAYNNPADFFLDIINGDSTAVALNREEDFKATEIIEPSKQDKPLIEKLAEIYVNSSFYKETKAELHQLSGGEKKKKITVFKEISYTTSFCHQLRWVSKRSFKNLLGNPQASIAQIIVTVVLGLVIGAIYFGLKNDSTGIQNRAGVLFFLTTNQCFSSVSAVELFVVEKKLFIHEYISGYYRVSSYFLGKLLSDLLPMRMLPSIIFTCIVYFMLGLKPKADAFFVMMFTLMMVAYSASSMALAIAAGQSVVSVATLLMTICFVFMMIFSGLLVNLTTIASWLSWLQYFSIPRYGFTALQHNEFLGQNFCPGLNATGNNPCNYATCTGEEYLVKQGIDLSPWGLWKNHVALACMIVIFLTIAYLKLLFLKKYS

[11] = Reversal fold, ratio of ADR IC50 to ADR IC50 in presence of test compound for reversal of multi-drug resistance in human KVB cells at 5 uM measured after 72 hrs by MTT; type: functional, KBV
[12] = target: T1, ATP-dependent translocase ABCB1; assay: Inhibition of P-gp-mediated rhodamine-123 efflux in human KVB cells assessed as increase in intracellular Rhodamine-123 accumulation incubated for 30 mins by flow cytometry; type: cell-based; conditions: kbv, 0.5 h, at 2.5 to 10 µM, dose 2.5-10 µM
[13] = Reversal fold, ratio of PTX IC50 to PTX IC50 in presence of test compound for reversal of multi-drug resistance in human KVB cells at 10 uM measured after 72 hrs by MTT assay; type: functional, KBV
[14] = target: T1, ATP-dependent translocase ABCB1; assay: Thermal stabilization of P-gp in human KVB cells at 58 to 61 degreeC by CETSA assay; type: cell-based; conditions: kbv
[15] = Reversal fold, ratio of cisplatin IC50 to cisplatin IC50 in presence of test compound for reversal of multi-drug resistance in human KVB cells at 10 uM measured after 72 hrs by MTT assay; type: functional, KBV
KBV [16] = assay: Effect on P-gp sub-cellular localization in human KVB cells at 10 uM measured for 48 hrs incubation by immunofluorescence assay; type: functional, cell-based
[17] = Cytotoxicity against human KBV cells assessed as cell survival at 10 uM measured after 72 hrs incubation by MTT assay relative to control; type: functional; conditions: read-out: Activity
KBV [18] = assay: Reduction in P-gp protein level in human KVB cells at 10 uM measured upto 96 hrs incubation by Western blot analysis; type: functional, cell-based
[19] = Reversal of multi-drug resistance in human KVB cells assessed as increase in PTX-induced cytotoxicity by measuring cell survival at 5 uM measured after 72 hrs incubation in presence of 100 nM paclitaxel by MTT assay relative to control; type: functional, KBV
[20] = Reversal fold, ratio of ADR IC50 to ADR IC50 in presence of test compound for reversal of multi-drug resistance in human KVB cells at 10 uM measured after 72 hrs by MTT; type: functional, KBV
[21] = target: Multidrug resistance-associated protein 1 (Homo sapiens, UniProt P33527); assay: Thermal stabilization of ABCC1 in human KVB cells by CETSA assay; type: cell-based; conditions: kbv
[22] = target: T1, ATP-dependent translocase ABCB1; assay: Inhibition of P-gp-mediated Ptx-C efflux in human KVB cells assessed as increase in fluorescence intensity incubated for 3 hrs by confocal microscopic analysis; type: cell-based; conditions: kbv, at 2.5 to 10 µM, dose 2.5-10 µM
[23] = Reversal fold, ratio of 5-fluorouracil IC50 to 5-fluorouracil IC50 in presence of test compound for reversal of multi-drug resistance in human KVB cells at 5 uM measured after 72 hrs by MTT assay; type: functional, KBV
[24] = Reversal of multi-drug resistance in human KVB cells assessed as increase in PTX-induced cytotoxicity by measuring cell survival at 10 uM measured after 72 hrs incubation in presence of 100 nM paclitaxel by MTT assay relative to control; type: functional, KBV
[25] = Reversal fold, ratio of cisplatin IC50 to cisplatin IC50 in presence of test compound for reversal of multi-drug resistance in human KVB cells at 5 uM measured after 72 hrs by MTT assay; type: functional, KBV
KBV [26] = assay: Potentiation of PTX-mediated antimigratory activity against human KVB cells assessed as inhibition of cell migration at 2.5 to 10 uM and incubated for 24 hrs in presence of 50 nM by scratch wound healing assay; type: functional, cell-based; conditions: dose 2.5-10 µM
[27] = target: T1, ATP-dependent translocase ABCB1; assay: Inhibition of P-gp-mediated rhodamine-123 efflux in human KVB cells assessed as increase in intracellular Rhodamine-123 accumulation at 10 uM incubated for 30 mins by flow cytometry; type: cell-based; conditions: kbv, 0.5 h
[28] = Cytotoxicity against human KBV cells assessed as cell survival at 5 uM measured after 72 hrs incubation by MTT assay relative to control; type: functional; conditions: read-out: Activity
[29] = Reversal fold, ratio of PTX IC50 to PTX IC50 in presence of test compound for reversal of multi-drug resistance in human KVB cells at 5 uM measured after 72 hrs by MTT; type: functional, KBV

T1 sequence (P08183 whole entry): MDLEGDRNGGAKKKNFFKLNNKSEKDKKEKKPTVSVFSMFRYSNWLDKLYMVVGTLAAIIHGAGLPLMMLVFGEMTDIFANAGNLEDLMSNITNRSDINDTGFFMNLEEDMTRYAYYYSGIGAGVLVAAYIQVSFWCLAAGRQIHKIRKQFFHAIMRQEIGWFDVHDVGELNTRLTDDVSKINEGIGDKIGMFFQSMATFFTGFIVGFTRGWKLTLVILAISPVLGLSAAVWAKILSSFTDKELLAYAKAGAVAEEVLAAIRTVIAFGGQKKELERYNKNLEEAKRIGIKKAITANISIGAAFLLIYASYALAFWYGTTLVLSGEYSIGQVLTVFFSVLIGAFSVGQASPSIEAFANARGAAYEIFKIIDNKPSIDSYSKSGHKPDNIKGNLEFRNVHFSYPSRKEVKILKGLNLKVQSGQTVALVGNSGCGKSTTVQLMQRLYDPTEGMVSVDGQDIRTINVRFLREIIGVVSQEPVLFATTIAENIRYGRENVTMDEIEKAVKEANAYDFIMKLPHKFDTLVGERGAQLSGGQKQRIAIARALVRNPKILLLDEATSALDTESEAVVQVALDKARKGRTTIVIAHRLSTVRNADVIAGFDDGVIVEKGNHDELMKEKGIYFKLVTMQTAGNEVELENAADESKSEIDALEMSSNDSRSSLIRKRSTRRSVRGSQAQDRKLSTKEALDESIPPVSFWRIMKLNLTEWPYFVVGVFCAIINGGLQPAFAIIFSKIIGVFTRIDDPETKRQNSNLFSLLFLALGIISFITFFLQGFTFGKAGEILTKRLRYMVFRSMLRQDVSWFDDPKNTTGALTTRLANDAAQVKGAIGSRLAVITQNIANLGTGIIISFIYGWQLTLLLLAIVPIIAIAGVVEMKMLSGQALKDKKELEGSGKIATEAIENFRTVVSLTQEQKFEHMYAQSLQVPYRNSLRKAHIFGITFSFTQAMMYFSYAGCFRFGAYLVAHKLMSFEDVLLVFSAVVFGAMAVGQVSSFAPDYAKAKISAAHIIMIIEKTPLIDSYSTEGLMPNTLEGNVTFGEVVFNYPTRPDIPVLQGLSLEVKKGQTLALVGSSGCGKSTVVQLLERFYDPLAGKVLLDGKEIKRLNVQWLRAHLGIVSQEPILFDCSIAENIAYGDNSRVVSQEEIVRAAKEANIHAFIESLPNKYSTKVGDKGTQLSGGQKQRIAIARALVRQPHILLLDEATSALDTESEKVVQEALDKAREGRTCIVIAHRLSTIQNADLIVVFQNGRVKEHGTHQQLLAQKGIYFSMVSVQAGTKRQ
Multidrug resistance-associated protein 1, sequence (P33527 whole entry): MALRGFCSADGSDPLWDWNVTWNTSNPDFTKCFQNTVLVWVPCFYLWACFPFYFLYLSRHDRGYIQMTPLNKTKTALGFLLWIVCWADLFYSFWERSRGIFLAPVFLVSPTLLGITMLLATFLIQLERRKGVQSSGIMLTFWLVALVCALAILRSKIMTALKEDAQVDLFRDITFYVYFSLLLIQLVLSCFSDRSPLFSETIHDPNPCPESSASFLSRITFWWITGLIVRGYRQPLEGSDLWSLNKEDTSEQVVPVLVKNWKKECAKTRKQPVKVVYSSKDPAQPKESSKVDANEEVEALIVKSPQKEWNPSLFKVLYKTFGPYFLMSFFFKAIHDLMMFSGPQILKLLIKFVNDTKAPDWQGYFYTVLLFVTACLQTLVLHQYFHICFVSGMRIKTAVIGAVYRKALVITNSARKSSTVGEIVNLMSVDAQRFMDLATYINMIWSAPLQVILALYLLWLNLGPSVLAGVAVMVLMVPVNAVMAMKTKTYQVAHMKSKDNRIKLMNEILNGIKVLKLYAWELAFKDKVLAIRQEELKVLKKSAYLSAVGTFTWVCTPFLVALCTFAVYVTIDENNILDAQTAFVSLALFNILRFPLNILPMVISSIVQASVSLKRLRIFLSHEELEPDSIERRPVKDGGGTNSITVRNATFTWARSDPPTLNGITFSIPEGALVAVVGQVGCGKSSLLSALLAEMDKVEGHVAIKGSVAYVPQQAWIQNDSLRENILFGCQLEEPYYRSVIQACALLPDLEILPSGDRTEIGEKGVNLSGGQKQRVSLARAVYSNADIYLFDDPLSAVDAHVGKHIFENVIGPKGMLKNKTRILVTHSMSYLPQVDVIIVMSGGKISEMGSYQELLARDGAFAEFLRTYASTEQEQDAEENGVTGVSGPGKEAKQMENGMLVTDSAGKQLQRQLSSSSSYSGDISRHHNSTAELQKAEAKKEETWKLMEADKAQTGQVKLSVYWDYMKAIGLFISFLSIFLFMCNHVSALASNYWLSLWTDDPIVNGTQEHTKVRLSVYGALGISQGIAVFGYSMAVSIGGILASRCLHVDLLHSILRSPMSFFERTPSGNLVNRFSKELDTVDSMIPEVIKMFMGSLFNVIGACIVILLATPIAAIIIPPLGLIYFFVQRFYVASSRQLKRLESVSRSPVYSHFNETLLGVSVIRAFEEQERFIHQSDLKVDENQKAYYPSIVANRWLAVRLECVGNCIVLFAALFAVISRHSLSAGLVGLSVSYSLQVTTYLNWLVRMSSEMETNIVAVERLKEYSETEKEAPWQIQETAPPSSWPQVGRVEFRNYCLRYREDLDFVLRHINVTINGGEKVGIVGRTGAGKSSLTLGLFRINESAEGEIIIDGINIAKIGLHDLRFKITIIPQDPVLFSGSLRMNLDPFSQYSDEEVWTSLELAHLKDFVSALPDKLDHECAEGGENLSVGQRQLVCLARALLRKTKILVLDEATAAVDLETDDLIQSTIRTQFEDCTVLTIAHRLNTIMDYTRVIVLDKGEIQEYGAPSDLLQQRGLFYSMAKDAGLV

## COc1ccc2c3c([nH]c2c1)[C@H](CC(C)C)N1C(=O)[C@H](CCC(=O)OC(C)(C)C)NC(=O)[C@@H]1C3
[1]
  Ratio IC50: 3.2

## CC(=O)O[C@H]1C(=O)[C@@]2(C)[C@H]([C@H](OC(=O)c3ccccc3)[C@]3(O)C[C@H](OC(=O)[C@H](O)[C@@H](NC(=O)c4ccccc4)c4ccccc4)C(C)=C1C3(C)C)[C@]1(OC(C)=O)CO[C@@H]1C[C@@H]2O
KBV [2]
  Activity: inactive
KBV [3]
  Activity: inactive

## COc1ccc(CCN(C)CCCC(C#N)(c2ccc(OC)c(OC)c2)C(C)C)cc1OC (stereo unspecified)
[4]
  IC50 at 72 h: > 100 µM
[5]
  Activity: Active
[6]
  IC50 at 72 h: 53.4 µM

## CN(C)C(=O)CCSC(SCCC(=O)O)c1cccc(/C=C/c2ccc3ccc(Cl)cc3n2)c1 (stereo unspecified) [MK-571]
[7]
  Ratio IC50: 6.4

## COc1cccc2c1C(=O)c1c(O)c3c(c(O)c1C2=O)C[C@@](O)(C(=O)CO)C[C@@H]3O[C@H]1C[C@H](N)[C@H](O)[C@H](C)O1 [DOXORUBICIN HYDROCHLORIDE]
[8]
  IC50: 8.19 µM

## CC(C)(C)OC(=O)N1CC(CC(=O)N[C@H]2CC[C@]3(C)[C@H]4C[C@@H](O)[C@@H]5[C@@H]([C@]6(C)CC[C@H](C(C)(C)O)O6)CC[C@@]5(C)[C@]4(C)CC[C@H]3C2(C)C)C1
KBV [9]
  Activity: Dose-Dependent Effect
[10]
  Activity: Not Active
[8]
  IC50: 44.9 µM
[11]
  Ratio IC50: 7.9
[12]
  inhibition (INH): Dose-Dependent Effect
[13]
  Ratio: 211.8
[1]
  Ratio IC50: 1.1
[14]
  Activity: Active
[4]
  IC50 at 72 h: > 100 µM
[15]
  Ratio IC50: 1
[5]
  Activity: Active
KBV [16]
  Activity: inactive
[17]
  viability at 10 µM: 92%
KBV [18]
  Activity: inactive
[19]
  Activity: 36%
[20]
  Ratio IC50: 14.8
[21]
  Activity: Not Active
[22]
  inhibition (INH): Dose-Dependent Effect
[6]; read-out: IC50
  IC50 at 72 h: 63.1 µM
[23]
  Ratio IC50: 1
[24]
  Activity: 23%
[25]
  Ratio IC50: 1
KBV [26]
  Activity: Active

## O=c1[nH]cc(F)c(=O)[nH]1 [FLUOROURACIL]
[8]
  IC50: 829 µM

## COc1cc2c(cc1OC)CN(CCc1ccc(NC(=O)c3cc(OC)c(OC)cc3NC(=O)c3cnc4ccccc4c3)cc1)CC2
[8]
  IC50: 8.66 µM
[13]
  Ratio: 206.6
[4]
  IC50 at 72 h: 40.3 µM
[27]
  inhibition (INH): Active
[6]; read-out: IC50
  IC50 at 72 h: 8.03 µM

## CC(C)(O)[C@H]1CC[C@@](C)([C@H]2CC[C@]3(C)[C@@H]2[C@H](O)C[C@@H]2[C@@]4(C)CC[C@H](NC(=O)[C@@H]5CCCCN5)C(C)(C)[C@@H]4CC[C@]23C)O1
[28]
  viability at 5 µM: 96%
[5]
  Activity: Active
[19]
  Activity: 41%
[29]
  Ratio IC50: 116.7
